Measurements published in patent US20250235437A1, “PROTEOLYSIS TARGETING CHIMERA (PROTAC) MOLECULE FOR DEGRADATION OF ENL AND CANCER THERAPY” (Baylor College of Medicine, priority 2022, published 2025).
Like-named read-outs stand apart in the source and are kept apart here. Blank lines part the entries; values can stand above or below the compound they belong to.

Assays:
RPMI-8226 cells [1] = test: Anti-proliferative activity, RPMI-8226 cells; type: cell-based
MV4;11 cells [2] = conditions: footnote b: reported in Li, et al. J Hematol Oncol, 2022, read-out: Anti-proliferative activity EC50, MV4; cited from earlier work
[3] = target: T1, ENL YEATS-H3K27ac interaction (Homo sapiens, UniProt Q03111); test: ALPHA assay, inhibition of ENL YEATS-H3K27ac interaction; conditions: read-out: IC50, inhibition of ENL YEATS-H3K27ac interaction
T1 sequence (Q03111 1-138 limits assumed): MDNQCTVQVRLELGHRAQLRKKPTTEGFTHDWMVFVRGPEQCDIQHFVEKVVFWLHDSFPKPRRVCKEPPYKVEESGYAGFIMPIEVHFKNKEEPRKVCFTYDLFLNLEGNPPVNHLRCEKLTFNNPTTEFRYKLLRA

Molm-13 cells [4] = conditions: Molm13 cells, footnote b: reported in Li, et al. J Hematol Oncol, 2022; read-out: Anti-proliferative activity EC50, Molm13; cited from earlier work
ENL [5] = target: T2, ENL (Homo sapiens, UniProt Q03111); test: ENL degradation in MV4;11 cells (Western blot); type: cell-based; conditions: for DC50: read-out: DC50 (concentration at which a protein is reduced by 50%), ENL
T2 construct: tested whether the compounds degrade ENL and AF9 in MV4;11 leukemia cells; endogenous in cells; host or cells: MV4;11; Molm-13
T2 sequence (Q03111 1-559): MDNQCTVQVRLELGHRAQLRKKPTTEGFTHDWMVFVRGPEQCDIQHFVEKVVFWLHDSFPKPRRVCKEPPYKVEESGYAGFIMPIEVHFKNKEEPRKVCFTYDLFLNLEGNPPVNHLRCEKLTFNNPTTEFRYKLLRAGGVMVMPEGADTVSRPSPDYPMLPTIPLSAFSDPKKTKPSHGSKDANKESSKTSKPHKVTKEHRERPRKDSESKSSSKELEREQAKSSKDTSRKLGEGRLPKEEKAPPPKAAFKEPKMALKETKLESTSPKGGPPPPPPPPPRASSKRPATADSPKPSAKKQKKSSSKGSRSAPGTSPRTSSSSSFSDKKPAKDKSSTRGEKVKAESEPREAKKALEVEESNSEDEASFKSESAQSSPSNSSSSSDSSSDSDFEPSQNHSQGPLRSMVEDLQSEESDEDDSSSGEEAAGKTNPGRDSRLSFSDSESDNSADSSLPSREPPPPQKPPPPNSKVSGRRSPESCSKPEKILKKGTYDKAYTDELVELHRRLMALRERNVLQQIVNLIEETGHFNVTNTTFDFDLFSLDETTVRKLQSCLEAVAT
Method: Next, Applicant tested whether the compounds degrade ENL and AF9 in MV4;11 leukemia cells with the .MLL1-AF4 oncogene. Upon compound treatment for 24 h, the cells were washed, lysed, and the lysates subjected to SDS-PAGE (sodium dodecyl sulphate-polyacrylamide gel electrophoresis) followed by detection with Western blot.

Hela cell [6] = conditions: Hela cells, footnote b: reported in Li, et al. J Hematol Oncol, 2022, read-out: Anti-proliferative activity EC50, Hela, cited from earlier work
Hela cell [7] = test: Anti-proliferative activity, Hela cells; type: cell-based; conditions: Hela cells, read-out: Anti-proliferative activity EC50, Hela
[8] = tested on: blood and solid tumor cells; test: Anti-proliferative activity, panel of blood and solid tumor cells; type: cell-based
Molm-13 cells [9] = test: Anti-proliferative activity, Molm-13 cells; type: cell-based
RPMI-8226 cells [10] = conditions: footnote b: reported in Li, et al. J Hematol Oncol, 2022, read-out: Anti-proliferative activity EC50, RPMI-8226; cited from earlier work
MV4;11 cells [11] = test: Anti-proliferative activity, MV4;11 cells; type: cell-based
ENL [12] = target: T2, ENL; test: Nuclear and cytoplasmic ENL levels in MV4;11 cells, 4 days (Western blot); type: cell-based
From the text: Upon treatment of MV4;11 cells with these compounds for 4 days, cytoplasmic and nuclear proteins were separated and subjected to SDS-PAGE/Western blot.

ENL [13] = target: T2, ENL; test: Rescue of compound 1-mediated ENL degradation in MV4;11 cells; type: cell-based; conditions: 2 h pre-treatment then co-treatment with compound 1 (500 nM) for 24 h
[14] = Molm13 cells, read-out: Anti-proliferative activity EC50, Molm13
[15] = MV4, 11 cells, read-out: Anti-proliferative activity EC50, MV4, 11

EC50 (Molm-13 cells [9]; [14]): 4.4 ± 0.5 µM
EC50 (MV4;11 cells [11]; [15]): 3.7 ± 1.6 µM
EC50 (RPMI-8226 cells [1]): 6.4 ± 0.65 µM
Structure (SMILES): C[C@H]1CCCN1Cc1nc2cc(NC(=O)c3ccc4c(cnn4CCCCCCCNc4cccc5c4C(=O)N(C4CCC(=O)NC4=O)C5=O)c3)ccc2[nH]1 (stereo partly drawn) [SYC-2554]

EC50 (Molm-13 cells [9]; [14]): 4.5 ± 0.6 µM
EC50 (MV4;11 cells [11]; [15]): 8.3 ± 0.8 µM
EC50 (RPMI-8226 cells [1]): 7.9 ± 0.07 µM
ENL reduction (ENL [5]; FIGS. 9A-9E): did not reduce ENL
Structure (SMILES): C[C@H]1CCCN1Cc1nc2cc(NC(=O)c3ccc4c(cnn4CCCCCCCCCNc4cccc5c4C(=O)N(C4CCC(=O)NC4=O)C5=O)c3)ccc2[nH]1 (stereo partly drawn) [SYC-2555]

EC50 (Molm-13 cells [9]; [14]): 1.1 ± 0.3 µM
EC50 (MV4;11 cells [11]; [15]): 8.4 ± 1.2 µM
EC50 (RPMI-8226 cells [1]): 7.5 ± 0.19 µM
ENL reduction (ENL [5]; FIGS. 9A-9E): did not reduce ENL
Structure (SMILES): C[C@H]1CCCN1Cc1nc2cc(NC(=O)c3ccc4c(cnn4CCCCCCCCCCNc4cccc5c4C(=O)N(C4CCC(=O)NC4=O)C5=O)c3)ccc2[nH]1 (stereo partly drawn) [SYC-2556]

EC50 (Molm-13 cells [9]; [14]): 0.82 ± 0.2 µM
EC50 (MV4;11 cells [11]; [15]): 0.94 ± 0.06 µM
EC50 (RPMI-8226 cells [1]; 6 days incubation): 5.5 µM
ENL reduction (ENL [5]; FIGS. 9A-9E): did not reduce ENL
Structure (SMILES): C[C@H]1CCCN1Cc1nc2cc(NC(=O)c3ccc4c(cnn4CCCCCCCCCCCNc4cccc5c4C(=O)N(C4CCC(=O)NC4=O)C5=O)c3)ccc2[nH]1 (stereo partly drawn) [SYC-2557]

EC50 (Hela cell [7]; 3 days incubation): 2.5 ± 1 µM
Structure (SMILES): C[C@H]1CCCN1Cc1nc2cc(NC(=O)c3ccc4c(cnn4CCCNC(=O)CC45CC6CC(CC(C6)C4)C5)c3)ccc2[nH]1 [SYC-2558]

ENL level in the nucleus (ENL [12]): did not reduce
EC50 (Molm-13 cells [9]; Homo sapiens, 168 h, Molm-13 cells, 7-day incubation, read-out: EC50, proliferation): > 50 µM
EC50 (MV4;11 cells [11]; Homo sapiens, 168 h, MV4;11 cells, 7-day incubation, read-out: EC50, proliferation): > 50 µM
Structure (SMILES): O=C1CCC(N2C(=O)c3ccccc3C2=O)C(=O)N1 (stereo not drawn) [Thalidomide, thalidomide, reference compound]
EC50 (MV4;11 cells [2]): > 50 µM
EC50 (RPMI-8226 cells [10]): > 50 µM
effect on compound 1-mediated ENL degradation (ENL [13]): dose-dependently inhibit compound 1-mediated ENL degradation
EC50 (Molm-13 cells [4]): > 50 µM
EC50 (Hela cell [6]): > 50 µM

The next lines start with the compound.

Structure (SMILES): C[C@H]1CCCN1Cc1nc2cc(NC(=O)c3ccc4c(cnn4CCCCCCNc4cccc5c4C(=O)N(C4CCC(=O)NC4=O)C5=O)c3)ccc2[nH]1 (stereo partly drawn) [Compound 2]
EC50 (RPMI-8226 cells [1]): 6 ± 0.91 µM
EC50 (MV4;11 cells [2]): 1.6 µM
IC50 [3]: 0.1 µM
EC50 (Molm-13 cells [4]): 0.49 µM
Dmax (maximal degradation), ENL (ENL [5]; 24 h treatment): ~68%
DC50 (ENL [5]; 24 h treatment): ~0.05 µM
EC50 (Hela cell [6]): > 50 µM

Structure (SMILES): C[C@H]1CCCN1Cc1nc2cc(NC(=O)c3ccc4c(cnn4CCCCNc4cccc5c4C(=O)N(C4CCC(=O)NC4=O)C5=O)c3)ccc2[nH]1 (stereo partly drawn) [Compound 3]
EC50 (Hela cell [7]; footnote letter missing): > 50 µM
EC50 (RPMI-8226 cells [1]): 19 ± 3.8 µM
EC50 (MV4;11 cells [2]): 1.2 µM
IC50 [3]: 0.61 µM
EC50 (Molm-13 cells [4]): 2.1 µM
Dmax (maximal degradation), ENL (ENL [5]; 24 h treatment): 89%
concentration at which ENL is almost depleted (ENL [5]; 24 h treatment): ~500 nM
DC50 (ENL [5]; 24 h treatment): 0.072 µM

Structure (SMILES): C[C@H]1CCCN1Cc1nc2cc(NC(=O)c3ccc4c(cnn4CCCCNC(=O)CC45CC6CC(CC(C6)C4)C5)c3)ccc2[nH]1 [Compound 4]
time to non-selective killing of cancerous cells [8]: ≤ 3 days
EC50 ([8]; blood and solid tumor cells, range over cell lines, read-out: EC50, proliferation): 1 to 3.8 µM
ENL reduction (ENL [5]; 24 h, even at 5 μM): did not reduce ENL

Structure (SMILES): C[C@H]1CCCN1Cc1nc2cc(NC(=O)c3ccc4c(cnn4C)c3)ccc2[nH]1 [SGC-iMLLT, reference compound]
activity against proliferation (Molm-13 cells [9]; Molm-13 cells): weak activity
EC50 (MV4;11 cells [2]): > 50 µM
EC50 (RPMI-8226 cells [10]): > 50 µM
EC50 (Molm-13 cells [4]): 17 µM
EC50 (Hela cell [6]): > 50 µM

Structure (SMILES): C[C@H]1CCCN1Cc1nc2cc(NC(=O)c3ccc4c(cnn4CCCCCCCCNC(=O)CC45CC6CC(CC(C6)C4)C5)c3)ccc2[nH]1 [SYC-2521]
EC50 (Molm-13 cells [9]; [14]): 1 ± 0.2 µM
EC50 (Hela cell [7]; 3 days incubation): 2.5 ± 1.4 µM
EC50 (RPMI-8226 cells [1]): 2 ± 0.3 µM

Structure (SMILES): C[C@H]1CCCN1Cc1nc2cc(NC(=O)c3ccc4c(cnn4CCCCCCNC(=O)CC45CC6CC(CC(C6)C4)C5)c3)ccc2[nH]1 [SYC-2522]
EC50 (Molm-13 cells [9]; [14]): 1 ± 0.05 µM
EC50 (Hela cell [7]; 3 days incubation): 3.2 ± 0.7 µM
EC50 (RPMI-8226 cells [1]): 0.68 ± 0.2 µM

Structure (SMILES): C[C@H]1CCCN1Cc1nc2cc(NC(=O)c3ccc4c(cnn4CCCCNC(=O)CC45CC6CC(CC(C6)C4)C5)c3)ccc2[nH]1 [SYC-2523]
EC50 (Molm-13 cells [9]; [14]): 0.98 ± 0.04 µM
EC50 (RPMI-8226 cells [1]; 3 days incubation): 1.4 ± 0.5 µM
EC50 (Hela cell [6]; 3 days incubation): 3.8 ± 1.2 µM

Structure (SMILES): C[C@H]1CCCN1Cc1nc2cc(NC(=O)c3ccc4c(cnn4CCCNc4cccc5c4C(=O)N(C4CCC(=O)NC4=O)C5=O)c3)ccc2[nH]1 (stereo partly drawn) [SYC-2552]
EC50 (Molm-13 cells [9]; [14]): 2.5 ± 1.1 µM
DC50 (ENL [5]; 24 h treatment): 0.021 µM

Structure (SMILES): C[C@H]1CCCN1Cc1nc2cc(NC(=O)c3ccc4c(cnn4CCCCCNc4cccc5c4C(=O)N(C4CCC(=O)NC4=O)C5=O)c3)ccc2[nH]1 (stereo partly drawn) [SYC-2553]
EC50 (Molm-13 cells [9]; [14]): 3.4 ± 0.4 µM
EC50 (MV4;11 cells [11]; [15]): 8.3 ± 1.6 µM
EC50 (RPMI-8226 cells [1]): 7.2 ± 0.35 µM
DC50 (ENL [5]; 24 h treatment): 0.0042 µM

Structure (SMILES): CC(C)C[C@H](NC(=O)[C@H](Cc1ccccc1)NC(=O)c1cnccn1)B(O)O [bortezomib]
effect on compound 1-mediated ENL degradation (ENL [13]): dose-dependently inhibit compound 1-mediated ENL degradation
